Source: US11529344B2, “EZH2 inhibitor combination therapies” (Pfizer Inc., priority 2017, dated 2022)

Test system: DMS114 SCLC xenograft
Text: • (i) Compound Formulation: Compound 1 was formulated as a wet-milled nanosuspension (24 hr milling in 2.5% w/v polyvinyl pyrrolidone (PVP), 0.5% w/v Macrogol 15 Hydroxystearate (Kolliphor HS15) aqueous, with <1 μm particle-size distribution (PSD; ˜650 nm median diameter (d50)) for oral gavage administration. • (ii) Cell Implant, Compound Dosing and Tissue Collection: Immune deficient female mice with a severe combined immunodeficiency (SCID) mutation in a non-obese diabetic background (NOD SCID; 6 to 8 week old; NOD.CB17-Prkdcscid/NCrCrl from Charles River Laboratories) received a subcutaneous (SC) implant of 7.5×10^6 DMS114 cells (in 1:1 matrigel (Trevigen, Cultrex BME Path Clear®, Lot #: 30625F14), total volume 200 μl) into the right flank. Tumor volume and body weight were measured twice a week. On Day 20 post implant, 64 mice were randomized, based on tumor size at a geometric mean (geomean) of about 160 mm^3, into 6 groups corresponding to dose (Table 1). Compounds were administered at 10 ml/kg by oral gavage (Compound 1; BID ( 7/17 hours apart)) or intraperitoneal injection (cisplatin), respectively. The cisplatin dosing schedule was once a week for 3 weeks (Q7Dx3) and started 7 days after the randomization and treatment initiation with Compound 1.
On Day 55, study groups 1, 2, 3 and 4 were terminated (Table 1). Tumor (snap frozen) samples were collected at 4 hours post last dose for pharmacodynamic (PD) analysis. […] Tumor samples from groups 5 and 6 were collected 3 hours post last dose depending on available tumor sizes. All procedures performed on these animals were in accordance with regulations and established guidelines and were reviewed and approved by Pfizer's Institutional Animal Care and Use Committee. • (iii) Data Interpretation: For each experiment, calculations were performed and graphs created in Microsoft Excel and GraphPad Prism version 7.02 respectively. The tumor volume was calculated as 0.5×length×width^2. Tumor growth inhibition (TGI) was determined by the formula: % TGI=[1−(Vtx−Vt0/Vcx−Vc0)]×100, where Vc, Vt are the geometric means of control and treated groups. X=day X on study and 0=initial day of dosing. ELISA Assay: • (i) Histone Extraction: Histone extraction was performed using the EpiQuick Histone Extraction Kit (Epigentek OP0006). Frozen tumor samples were cut and homogenized using cold mortar and pestle on dry-ice. The homogenized mixture was transferred to a 1.5 mL tube in 1× Pre-Lysis Buffer (200 mg/mL) containing phenylmethylsulfonyl fluoride (PMSF). Samples were gently mixed, incubated on ice for 15 minutes, and spun down at 3,000 rpm for 5 minutes at 4° C. The tissue pellet was resuspended in 3 volumes (approximately 200 μL per 100 mg of tissue) of lysis buffer from the Histone Extraction Kit, incubated on ice for 30 minutes, and spun down at 12,000 rpm for 5 minutes at 4° C. Balance-DTT buffer was prepared by adding DTT Solution to balance buffer at a 1:500 ratio. The supernatant (containing acid soluble proteins) was transferred to a new 1.5 mL tube and 0.3 volumes of Balance-dithiothreitol (DTT) buffer from the Histone Extraction Kit were immediately added to each sample. The tumor lysate was briefly sonicated for 4 cycles (30 seconds on and 30 seconds off) at high intensity using the Bioruptor Plus (Diagenode #601020001). Extracts were aliquoted and stored at −20° C. (short term) or −80° C. (long term). Protein concentration was quantified using the Coomassie Plus (Bradford) Assay Kit (Thermo #23236). • (ii) H3K27Me3 and Me2 ELISA Assay: Histone extracts were diluted to a final concentration of 400 ng (or 800 ng) in 100 μL of coating buffer (phosphate buffered saline (PBS) containing 0.05% bovine serum albumin (BSA)).

N.N.[Cl][Pt][Cl] [cisplatin, reference compound]
TGI by Day 55 (Compound 1 100 mg/kg BID PO, cisplatin 4 mg/kg IP Q7Dx3, alone or combined): 51% | tumors regressed or progressed compared to the starting tumor burden (Day 55, Compound 1 100 mg/kg BID, cisplatin 4 mg/kg Q7Dx3): all tumors had progressed | tumor regression sustained after cisplatin discontinuation (post Day 55, Compound 1 maintenance dosing in combination arm, no further treatment in cisplatin arm): progressed | survival benefit, Log-rank test (Mantel-Cox) (survival cut-off at 500 mm^3 tumor burden): did not reach the P<0.05 significance level | median survival (survival cut-off at 500 mm^3 tumor burden, Compound 1 100 mg/kg BID, cisplatin 4 mg/kg Q7Dx3): 37.5 days
